In BindingDB's records for doi:10.1021/jm0011169 (Stockholm University, 2001) one finds Ki data, which are given here for 6 compounds.

For the experiment, the target named is T1, Dimer of Gag-Pol polyprotein [489-587] (Human immunodeficiency virus 1, UniProt P12497).
T1 construct: 489-587
The experiment is described as follows: Protease Inhibition Assay. The following applies: pH 5; 30 °C. The procedure: A fluorimetric assay was used to determine the effects of the inhibitors on HIV-1 protease. This assay used an internally quenched fluorescent peptide substrate. The measurements were performed in 96-well plates with a Fluoroscan plate reader. Excitation and emission wavelengths were 355 nm and 500 nm, respectively.
A word on the Ki: it is a measure of affinity in units of concentration, obtained from inhibition or displacement. Low values mean tighter binding, high ones weaker binding. In turn, `O=C(N[C@H]1c2ccccc2C[C@H]1O)[C@H](SCc1ccccc1F)[C@H](O)[C@@H](O)[C@@H](SCc1ccccc1F)C(=O)N[C@H]1c2ccccc2C[C@H]1O` [N1,N6-Di[(2R)-hydroxy-(1S)-indanyl]-(2R,3R,4R,5R)-2,5-di(2-fluorobenzylsulfanyl)-3,4-dihydroxyhexanediamide] had a Ki of 4.3 nM.

Compound `O=C(N[C@H]1c2ccccc2C[C@H]1O)[C@H](Sc1ccccc1)[C@H](O)[C@@H](O)[C@@H](Sc1ccccc1)C(=O)N[C@H]1c2ccccc2C[C@H]1O` [N1,N6-Di[(2R)-hydroxy-(1S)-indanyl]-(2R,3R,4R,5R)-3,4-dihydroxy-2,5-di(phenylsulfanyl)hexanediamide] returned a Ki of 1.8 nM.

Compound `C=CCS[C@@H](C(=O)N[C@H]1c2ccccc2C[C@H]1O)[C@H](O)[C@@H](O)[C@@H](SCC=C)C(=O)N[C@H]1c2ccccc2C[C@H]1O` [(2R,3R,4R,5R)-3,4-dihydroxy-N,N'-bis[(1S,2R)-2-hydroxy-2,3-dihydro-1H-inden-1-yl]-2,5-bis(prop-2-en-1-ylsulfanyl)hexanediamide] showed a Ki of 16 nM.

In turn, `O=C(N[C@H]1c2ccccc2C[C@H]1O)[C@H](SCc1ccccc1)[C@H](O)[C@@H](O)[C@@H](SCc1ccccc1)C(=O)N[C@H]1c2ccccc2C[C@H]1O` [N1,N6-Di[(2R)-hydroxy-(1S)-indanyl]-(2R,3R,4R,5R)-2,5-di(benzylsulfanyl)-3,4-dihydroxyhexanediamide] returned an inhibition constant (Ki) of 2.8 nM.

For `O=C(N[C@H]1c2ccccc2C[C@H]1O)[C@H](Sc1ccccn1)[C@H](O)[C@@H](O)[C@@H](Sc1ccccn1)C(=O)N[C@H]1c2ccccc2C[C@H]1O` [N1,N6-Di[(2R)-hydroxy-(1S)-indanyl]-(2R,3R,4R,5R)-3,4-dihydroxy-2,5-di(2-pyridylsulfanyl)hexanediamide], the affinity corresponds to a Ki of 285 nM.

`O=C(N[C@H]1c2ccccc2C[C@H]1O)[C@H](Sc1ccccc1F)[C@H](O)[C@@H](O)[C@@H](Sc1ccccc1F)C(=O)N[C@H]1c2ccccc2C[C@H]1O` [(2R,3R,4R,5R)-2,5-bis[(2-fluorophenyl)sulfanyl]-3,4-dihydroxy-N,N'-bis[(1S,2R)-2-hydroxy-2,3-dihydro-1H-inden-1-yl]hexanediamide] registered a Ki of 2.3 nM.
